Molecules are shown by their SMILES. Entries after “also recorded” stand apart in the source; their conditions may differ. Marks after values point to notes of the source that are not given here.

By inhibition is commonly meant the relative decrease from the control value, in per cent. By IC50 is commonly meant the concentration needed to halve the response being measured. A higher IC50 goes with weaker potency in that assay.

The target in assay [1] is butyryl cholinesterase (BChE) (Homo sapiens, UniProt P06276). Put plainly: butyryl cholinesterase inhibition assay. In kind it is biochemical. The conditions noted are these: for inhibition at 500 µM: read-out: BChE inhibition (%) at 0.5 mM; for activity against BChE enzyme (in words): compared with eserine.
butyryl cholinesterase (BChE), sequence (P06276 29-602, species assumed): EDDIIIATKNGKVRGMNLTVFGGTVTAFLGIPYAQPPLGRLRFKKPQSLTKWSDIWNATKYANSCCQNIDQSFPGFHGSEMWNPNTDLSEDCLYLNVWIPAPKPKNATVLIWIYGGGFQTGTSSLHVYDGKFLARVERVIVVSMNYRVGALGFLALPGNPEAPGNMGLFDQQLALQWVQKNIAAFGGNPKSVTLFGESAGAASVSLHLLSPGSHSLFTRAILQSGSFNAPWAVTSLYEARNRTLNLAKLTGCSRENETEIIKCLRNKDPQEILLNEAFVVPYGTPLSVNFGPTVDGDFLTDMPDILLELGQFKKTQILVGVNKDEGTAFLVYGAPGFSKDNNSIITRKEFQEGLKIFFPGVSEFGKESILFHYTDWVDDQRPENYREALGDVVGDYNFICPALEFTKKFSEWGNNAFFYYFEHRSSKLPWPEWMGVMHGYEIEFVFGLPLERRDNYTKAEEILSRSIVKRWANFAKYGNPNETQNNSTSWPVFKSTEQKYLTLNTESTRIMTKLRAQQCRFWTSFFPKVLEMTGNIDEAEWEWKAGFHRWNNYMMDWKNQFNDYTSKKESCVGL
The target in the next assay is α-glucosidase (Saccharomyces cerevisiae, UniProt P53341). The note with it: for activity against α-glucosidase enzyme (in words): compared with acarbose.
α-glucosidase, sequence (P53341 whole entry): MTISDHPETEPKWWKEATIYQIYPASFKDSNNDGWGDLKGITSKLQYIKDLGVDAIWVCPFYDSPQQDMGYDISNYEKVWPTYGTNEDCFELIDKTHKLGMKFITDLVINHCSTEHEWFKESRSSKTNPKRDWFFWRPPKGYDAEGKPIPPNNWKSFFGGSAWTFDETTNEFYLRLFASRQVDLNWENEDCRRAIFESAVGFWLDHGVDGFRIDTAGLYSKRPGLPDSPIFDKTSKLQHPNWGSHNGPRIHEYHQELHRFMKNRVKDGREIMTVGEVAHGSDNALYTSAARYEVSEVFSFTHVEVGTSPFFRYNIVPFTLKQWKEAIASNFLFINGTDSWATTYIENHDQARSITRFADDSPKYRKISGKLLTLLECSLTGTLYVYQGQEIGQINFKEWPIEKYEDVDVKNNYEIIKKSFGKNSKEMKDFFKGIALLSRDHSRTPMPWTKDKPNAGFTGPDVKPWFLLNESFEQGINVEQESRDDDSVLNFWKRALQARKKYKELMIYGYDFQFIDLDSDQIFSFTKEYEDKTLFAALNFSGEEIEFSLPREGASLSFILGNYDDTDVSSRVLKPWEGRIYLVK

`Cc1ccc(C)c(NC(=O)CSc2nnc(C3CCCN(S(=O)(=O)c4ccccc4)C3)o2)c1` (stereo not shown) [7c, N-(2,5-Dimethylphenyl)-2-{5-[1-(phenylsulfonyl)piperidin-3-yl]-1,3,4-oxadiazol-2-ylthio}acetamide]: in assay [1], the inhibition at 500 µM was found to be 40.76 ± 0.27%.
Still for that read-out and setting: to `COC(=O)c1ccccc1NC(=O)CSc1nnc(C2CCCN(S(=O)(=O)c3ccccc3)C2)o1` (stereo not shown) [7h, Methyl 2-(2-(5-(1-(Phenylsulfonyl)piperidin-3-yl)-1,3,4-oxadiazol-2-ylthio)acetamido)benzoate] belongs 35.52 ± 0.23%.
In the case of `Cc1ccc(NC(=O)CSc2nnc(C3CCCN(S(=O)(=O)c4ccccc4)C3)o2)c(C)c1` (stereo not shown) [7b, N-(2,4-Dimethylphenyl)-2-{5-[1-(phenylsulfonyl)piperidin-3-yl]-1,3,4-oxadiazol-2-ylthio}acetamide], in assay [1], inhibition was half-maximal at 283.3 ± 0.17 µM (IC50), the “activity against BChE enzyme (in words)” value is recorded as “least active; also recorded: BChE inhibitors” and the inhibition at 500 µM stood at 76.51 ± 0.44%.
Take `CCc1ccccc1NC(=O)CSc1nnc(C2CCCN(S(=O)(=O)c3ccccc3)C2)o1` (stereo not shown) [7k, N-(2-Ethylphenyl)-2-{5-[1-(phenylsulfonyl)piperidin-3-yl]-1,3,4-oxadiazol-2-ylthio}acetamide]: at α-glucosidase, the “activity against α-glucosidase enzyme (in words)” value is listed as “least activity”. For the same compound, in assay [1], the inhibition at 500 µM is 44.24 ± 0.32%.
Regarding `Cc1cccc(NC(=O)CSc2nnc(C3CCCN(S(=O)(=O)c4ccccc4)C3)o2)c1C` (stereo not shown) [7a, N-(2,3-Dimethylphenyl)-2-{5-[1-(phenylsulfonyl)piperidin-3-yl]-1,3,4-oxadiazol-2-ylthio}acetamide], in assay [1], half-maximal inhibition (IC50) was put at 284.5 ± 0.13 µM, the “activity against BChE enzyme (in words)” value was “least active; also recorded: BChE inhibitors” and the inhibition at 500 µM was 75.32 ± 0.35%.
For `CCc1ccc(NC(=O)CSc2nnc(C3CCCN(S(=O)(=O)c4ccccc4)C3)o2)cc1` (stereo not shown) [7l, N-(4-Ethylphenyl)-2-{5-[1-(phenylsulfonyl)piperidin-3-yl]-1,3,4-oxadiazol-2-ylthio}acetamide], in that order: 274.6 ± 0.13 µM, “least active; also recorded: BChE inhibitors” and 93.71 ± 0.28%.
As to `Cc1cccc([N+](=O)[O-])c1NC(=O)CSc1nnc(C2CCCN(S(=O)(=O)c3ccccc3)C2)o1` (stereo not shown) [7s, N-(2-Methyl-6-nitrophenyl)-2-{5-[1-(phenylsulfonyl)piperidin-3-yl]-1,3,4-oxadiazol-2-ylthio}acetamide], in assay [1], the 50% inhibitory concentration (IC50) was determined as 123.3 ± 0.15 µM, the “activity against BChE enzyme (in words)” value is recorded as “moderately high inhibition potential” and the inhibition at 500 µM is 67.19 ± 0.39%.
Consider `CCOc1ccccc1NC(=O)CSc1nnc(C2CCCN(S(=O)(=O)c3ccccc3)C2)o1` (stereo not shown) [7n, N-(2-Ethoxyphenyl)-2-{5-[1-(phenylsulfonyl)piperidin-3-yl]-1,3,4-oxadiazol-2-ylthio}acetamide], for which the inhibition at 500 µM in assay [1] amounted to 43.72 ± 0.15%.
For the compound `Cc1ccc(NC(=O)CSc2nnc(C3CCCN(S(=O)(=O)c4ccccc4)C3)o2)cc1` (stereo not shown) [7g, 2-{5-[1-(Phenylsulfonyl)piperidin-3-yl]-1,3,4-oxadiazol-2-ylthio}-N-p-tolylacetamide], the inhibition at 500 µM in assay [1] is 46.75 ± 0.18%.
Regarding `COc1ccc(Cl)cc1NC(=O)CSc1nnc(C2CCCN(S(=O)(=O)c3ccccc3)C2)o1` (stereo not shown) [7i, N-(5-Chloro-2-methoxyphenyl)-2-{5-[1-(phenylsulfonyl)piperidin-3-yl]-1,3,4-oxadiazol-2-ylthio}acetamide], the “activity against α-glucosidase enzyme (in words)” value at α-glucosidase is recorded as “second most active”. Further, the inhibition at 500 µM in assay [1] was determined as 38.81 ± 0.17%.
`O=C(CSc1nnc(C2CCCN(S(=O)(=O)c3ccccc3)C2)o1)NCc1ccccc1` (stereo not shown) [7r, N-Benzyl-2-{5-[1-(phenylsulfonyl)piperidin-3-yl]-1,3,4-oxadiazol-2-ylthio}acetamide]: the “activity against α-glucosidase enzyme (in words)” value on α-glucosidase was “least activity”. Also, the inhibition at 500 µM in assay [1] turned out to be 37.7 ± 0.48%.
As to `O=C(CSc1nnc(C2CCCN(S(=O)(=O)c3ccccc3)C2)o1)NCCc1ccccc1` (stereo not shown) [7j, N-Phenethyl-2-{5-[1-(phenylsulfonyl)piperidin-3-yl]-1,3,4-oxadiazol-2-ylthio}acetamide], in assay [1], the IC50 was 12.15 ± 0.09 µM, the “activity against BChE enzyme (in words)” value was “highest inhibition potential; also recorded: most active” and the inhibition at 500 µM came out at 97.93 ± 0.38%.
For `CCOc1ccc(NC(=O)CSc2nnc(C3CCCN(S(=O)(=O)c4ccccc4)C3)o2)cc1` (stereo not shown) [7m, N-(4-Ethoxyphenyl)-2-{5-[1-(phenylsulfonyl)piperidin-3-yl]-1,3,4-oxadiazol-2-ylthio}acetamide] the same measures were 328.1 ± 0.18 µM, “least active; also recorded: BChE inhibitors” and 72.41 ± 0.17%.
Regarding `Cc1ccccc1NC(=O)CSc1nnc(C2CCCN(S(=O)(=O)c3ccccc3)C2)o1` (stereo not shown) [7f, 2-{5-[1-(Phenylsulfonyl)piperidin-3-yl]-1,3,4-oxadiazol-2-ylthio}-N-o-tolylacetamide], in assay [1], the inhibition at 500 µM is 47.23 ± 0.14%.
Take `Cc1cccc(C)c1NC(=O)CSc1nnc(C2CCCN(S(=O)(=O)c3ccccc3)C2)o1` (stereo not shown) [7d, N-(2,6-Dimethylphenyl)-2-{5-[1-(phenylsulfonyl)piperidin-3-yl]-1,3,4-oxadiazol-2-ylthio}acetamide]: at α-glucosidase, the “activity against α-glucosidase enzyme (in words)” value is given as “least activity”. Besides, the inhibition at 500 µM in assay [1] came to 48.51 ± 0.15%.
For `O=C(CSc1nnc(C2CCCN(S(=O)(=O)c3ccccc3)C2)o1)NC1CCCCC1` (stereo not shown) [7p, N-Cyclohexyl-2-{5-[1-(phenylsulfonyl)piperidin-3-yl]-1,3,4-oxadiazol-2-ylthio}acetamide], the “activity against α-glucosidase enzyme (in words)” value at α-glucosidase is given as “least activity”. Besides, the inhibition at 500 µM in assay [1] came out at 26.5 ± 0.39%.
`CCc1cccc(C)c1NC(=O)CSc1nnc(C2CCCN(S(=O)(=O)c3ccccc3)C2)o1` (stereo not shown) [7o, N-(2-Ethyl-6-methylphenyl)-2-{5-[1-(phenylsulfonyl)piperidin-3-yl]-1,3,4-oxadiazol-2-ylthio}acetamide]: in assay [1], the inhibition at 500 µM amounted to 38.31 ± 0.29%.
Same read-out and setting: to `COc1ccccc1NC(=O)CSc1nnc(C2CCCN(S(=O)(=O)c3ccccc3)C2)o1` (stereo not shown) [7q, N-(2-Methoxyphenyl)-2-{5-[1-(phenylsulfonyl)piperidin-3-yl]-1,3,4-oxadiazol-2-ylthio}acetamide] belongs 36.32 ± 0.16%.
Turning to `C[C@H]1O[C@H](O[C@H]2[C@H](O)[C@@H](O)[C@@H](O[C@H]3[C@H](O)[C@@H](O)C(O)O[C@@H]3CO)O[C@@H]2CO)[C@H](O)[C@@H](O)[C@@H]1N[C@H]1C=C(CO)[C@@H](O)[C@H](O)[C@H]1O` (stereo partly shown) [acarbose, reference compound], on α-glucosidase (0.5 mM, mean ± SEM, triplicate), the “α-glucosidase inhibition (%) at 0.5 mM” value is on record as 92.23±0.14^a %.
For `Cc1cc(C)cc(NC(=O)CSc2nnc(C3CCCN(S(=O)(=O)c4ccccc4)C3)o2)c1` (stereo not shown) [7e, N-(3,5-Dimethylphenyl)-2-{5-[1-(phenylsulfonyl)piperidin-3-yl]-1,3,4-oxadiazol-2-ylthio}acetamide], the “activity against α-glucosidase enzyme (in words)” value at α-glucosidase is recorded as “most active; also recorded: comparable activity to that of reference”. In assay [1], it took 375.4 ± 0.12 µM to reach half-maximal inhibition (IC50), the “activity against BChE enzyme (in words)” value is “least active; also recorded: BChE inhibitors” and the inhibition at 500 µM amounted to 66.82 ± 0.32%.

These data come from PMC10077450 (ACS Omega, 2023).
